Data from ChEMBL document CHEMBL3232858, “Antiangiogenic activity of hypoxylonol C” (J Nat Prod, 2014).
Active and inactive are the calls of the source.

Columns and labels:
Details in all cases: Homo sapiens
HUVEC [1] = experiment: Antiangiogenic activity in HUVEC assessed as reduction of VEGF-induced tube length at 1 to 20 uM after 11 days; format: functional, cell-based
HUVEC [2] = experiment: Antiangiogenic activity in HUVEC assessed as reduction of VEGF-induced CDK1 mRNA level at 20 uM after 24 hrs by RT-PCR analysis; format: functional, cell-based
HUVEC [3] = experiment: Antiangiogenic activity in HUVEC assessed as reduction of VEGF-induced vascular endothelial cadherin mRNA level at 20 uM after 24 hrs by RT-PCR analysis; format: functional, cell-based
HUVEC [4] = experiment: Antiangiogenic activity in HUVEC assessed as inhibition of VEGF-induced cell migration after 22 hrs
HUVEC [5] = experiment: Antiangiogenic activity in HUVEC assessed as reduction of VEGF-induced cyclins A2 and B1 mRNA level at 20 uM after 24 hrs by RT-PCR analysis; format: functional, cell-based
HUVEC [6] = experiment: Antiangiogenic activity in HUVEC assessed as inhibition of VEGF-induced cell migration at 1 to 20 uM after 22 hrs
HUVEC [7] = experiment: Antiangiogenic activity in HUVEC assessed as inhibition of VEGF-induced tube formation at 1 to 20 uM after 11 days; format: functional, cell-based
HUVEC [8] = experiment: Antiangiogenic activity in HUVEC assessed as inhibition of VEGF-induced tube formation after 11 days; format: functional, cell-based
HUVEC [9] = experiment: Antiangiogenic activity in HUVEC assessed as reduction of VEGF-induced integrins alpha3 and beta1 mRNA level at 20 uM after 24 hrs by RT-PCR analysis; format: functional, cell-based

O=C1C[C@H]2C(=C3c4c2ccc(O)c4[C@@H](O)C[C@@H]3O)c2cccc(O)c21
active: inhibition (HUVEC [1]) | Activity (HUVEC [2]) | Activity (HUVEC [3]) | inhibition (HUVEC [4]) Dose-dependent effect | Activity (HUVEC [5]) | inhibition (HUVEC [6]) | inhibition (HUVEC [7]) | inhibition (HUVEC [8]) Dose-dependent effect | Activity (HUVEC [9])
